# Test results from patent US11655238B2 (priority 2018, dated 2023).
# Read-outs that look alike come from different tables or passages of the source.
# Assays:
# Assay type in all cases: cell-based
# [1] = system: Mycobacterium smegmatis strain (mc2155); assay: Resazurin microplate MIC on Mycobacterium smegmatis; settings: for MIC: Mycolicibacterium smegmatis, MC2155, 48 h
# [2] = system: Mycobacterium bovis BCG strain; assay: microbe, parasite or virus in culture; settings: for MIC: Mycobacterium tuberculosis variant bovis BCG, BCG, 168 h, read-out: MIC (μg/mL) Mycobacterium bovis BCG, BCG strain, 7H9 medium, 37° C., 168 hours, resazurin; for inhibitory effect on BCG strain (summary of Table 2): in words
# [3] = system: Mycobacterium tuberculosis H37Ra strain; assay: microbe, parasite or virus in culture; settings: for MIC: Mycobacterium tuberculosis, H37RA, 168 h, read-out: MIC (μg/mL) Mycobacterium tuberculosis H37Ra
# [4] = mc2155, 7H9 medium, 37° C., 48 hours, resazurin, read-out: MIC (μg/mL) Mycobacterium smegmatis
Compound,"MIC [1, 4] [µg/mL]",MIC [2] [µg/mL],MIC [3] [µg/mL],inhibitory effect on smegmatis strain (summary of Table 2) [1],inhibitory effect on BCG strain (summary of Table 2) [2],inhibitory effect on H37Ra strain (summary of Table 2) [3],"MIC ([1]; read-out: MIC (μg/mL) Mycobacterium smegmatis, mc2155, 7H9 medium, 37° C., 48 hours, resazurin) [µg/mL]"
"Cc1c(CNCCNC2C3CC4CC(C3)CC2C4)nn(-c2ccc(Cl)cc2Cl)c1-c1ccc(Cl)cc1 (stereo not drawn) [Compound 166, N1-((1r,3r,5r,7r)-adamantan-2-yl)-N2-((5-(4-chlorophenyl)-1-(2,4-dichlorophenyl)-4-methyl-1H-pyrazol-3-yl)-methyl)ethane-1,2-diamine]",7.62,7.62,3.81,–,–,–,–
"Cc1c(C(=O)NCCNC2C3CC4CC(C3)CC2C4)nn(-c2ccc(Cl)cc2Cl)c1-c1ccc(Cl)cc1 (stereo not drawn) [Compound 17, N-(2-(((1r,3r,5r,7r)-adamantan-2-yl)amino)ethyl)-5-(4-chloro-phenyl)-1-(2,4-dichlorophenyl)-4-methyl-1H-pyrazole-3-carboxamide]",11.9,5.95,5.95,good inhibitory effects,good inhibitory effects,good inhibitory effects,–
"Cc1c(C(=O)N(C)CCNC2C3CC4CC(C3)CC2C4)nn(-c2ccc(Cl)cc2Cl)c1-c1ccc(Cl)cc1 (stereo not drawn) [Compound 74, N-(2-(((1r,3r,5r,7r)-adamantan-2-yl)amino)ethyl)-5-(4-chlorophenyl)-1-(2,4-dichlorophenyl)-N,4-dimethyl-1H-pyrazole-3-carboxamide]",13.4,3.35,3.35,good inhibitory effects,good inhibitory effects,good inhibitory effects,–
"Cc1c(C(=O)OC2CC3CCC2(C)C3(C)C)nn(-c2ccc(Cl)cc2Cl)c1-c1ccc(Cl)cc1 (stereo not drawn) [Compound 171, 1,7,7-trimethylbicyclo[2.2.1]-heptan-2-yl 5-(4-chlorophenyl)-1-(2,4-dichlorophenyl)-4-methyl-1H-pyrazole-3-carbox-ylate]",200,> 200,> 200,–,–,–,–
"Cc1c(CNCCCNC2C3CC4CC(C3)CC2C4)nn(-c2ccc(Cl)cc2Cl)c1-c1ccc(Cl)cc1 (stereo not drawn) [Compound 164, N1-((1r,3r,5r,7r)-adamantan-2-yl)-N3-((5-(4-chloro-phenyl)-1-(2,4-dichloro-phenyl)-4-methyl-1H-pyrazol-3-yl)methyl)propane-1,3-diamine]",> 207,3.24,3.24,–,–,–,–
"Cc1c(CNS(=O)(=O)CCNC23CC4CC(C)(CC(C)(C4)C2)C3)nn(-c2ccc(Cl)cc2Cl)c1-c1ccc(Cl)cc1 [Compound 168, N-((5-(4-chlorophenyl)-1-(2,4-dichlorophenyl)-4-methyl-1H-pyrazol-3-yl)methyl)-2-(((1r,3R,5S,7r)-3,5-dimethyl-adamantan-1-yl)amino)ethane-1-sulfonamide]",21.3,21.3,10.7,–,–,–,–
"Cc1c(CNC(=O)NC23CC4CC(CC(C4)C2)C3)nn(-c2ccc(Cl)cc2Cl)c1-c1ccc(Cl)cc1 [Compound 10, 1-((3s,5s,7s)-adamantan-1-yl)-3-((5-(4-chlorophenyl)-1-(2,4-dichlorophenyl)-4-methyl-1H-pyrazol-3-yl)methyl)urea]",171,> 171,> 171,–,–,–,–
"Cc1ccc(-n2nc(C(=O)NCCNC3C4CC5CC(C4)CC3C5)c(C)c2-c2ccc(Cl)cc2)c(C)c1 (stereo not drawn) [Compound 77, N-(2-(((1r,3r,5r,7r)-adamantan-2-yl)amino)ethyl-5-(4-chloro-phenyl)-1-(2,4-dimethylphenyl)-4-methyl-1H-pyrazole-3-carboxamide]",10.4,5.18,2.59,good inhibitory effects,good inhibitory effects,good inhibitory effects,–
"Cc1c(CNC(=O)NCC23CC4CC(CC(C4)C2)C3)nn(-c2ccc(Cl)cc2Cl)c1-c1ccc(Cl)cc1 [Compound 11, 1-(((3r,5r,7r)-adamantan-1-yl)-methyl)-3-((5-(4-chlorophenyl)-1-(2,4-dichlorophenyl)-4-methyl-1H-pyrazol-3-yl)-methyl)urea]",134,> 134,33.5,–,–,–,–
"Cc1c(CNCCCCNC2C3CC4CC(C3)CC2C4)nn(-c2ccc(Cl)cc2Cl)c1-c1ccc(Cl)cc1 (stereo not drawn) [Compound 167, N1-((1r,3r,5r,7r)-adamantan-2-yl)-N4-((5-(4-chlorophenyl)-1-(2,4-dichlorophenyl)-4-methyl-1H-pyrazol-3-yl)-methyl)butane-1,4-diamine]",2.1,1.05,2.1,–,–,–,–
"Cc1c(C(=O)O[C@H]2C[C@H]3CC[C@]2(C)C3(C)C)nn(-c2ccc(Cl)cc2Cl)c1-c1ccc(Cl)cc1 [Compound 173, (1R,2S,4R)-1,7,7-trimethyl-bicyclo[2.2.1]heptan-2-yl 5-(4-chlorophenyl)-1-(2,4-dichlorophenyl)-4-methyl-1H-pyrazole-3-carboxylate]",57.9,> 232,> 232,–,–,–,–
"Cc1c(CNC(=O)CNC23CC4CC(C)(CC(C)(C4)C2)C3)nn(-c2ccc(Cl)cc2Cl)c1-c1ccc(Cl)cc1 [Compound 169, N-((5-(4-chlorophenyl)-1-(2,4-dichlorophenyl)-4-methyl-1H-pyrazol-3-yl)methyl)-2-(((1r,3R,5S,7r)-3,5-dimethyl-adamantan-1-yl)amino)-acetamide]",0.95,1.91,1.91,–,–,–,–
"Cc1c(CN(C)CCNC2C3CC4CC(C3)CC2C4)nn(-c2ccc(Cl)cc2Cl)c1-c1ccc(Cl)cc1 (stereo not drawn) [Compound 165, N1-((1r,3r,5r,7r)-adamantan-2-yl)-N2-((5-(4-chloro-phenyl)-1-(2,4-dichloro-phenyl)-4-methyl-1H-pyrazol-3-yl)methyl)-N2-methylethane-1,2-diamine]",57.9,3.62,1.81,–,–,–,–
"Cc1c(C(=O)N2CCN(C(=O)C34CC5CC(CC(C5)C3)C4)CC2)nn(-c2ccc(Cl)cc2Cl)c1-c1ccc(Cl)cc1 [Compound 170, ((3r,5r,7r)-adamantan-1-yl)(4-(5-(4-chlorophenyl)-1-(2,4-dichlorophenyl)-4-methyl-1H-pyrazole-3-carbonyl)piperazin-1-yl)methanone]",> 293,> 293,> 293,–,–,–,–
"Cc1c(C(=O)NCCNC23CC4CC(CC(C4)C2)C3)nn(-c2ccc(Cl)cc2Cl)c1-c1ccc(Cl)cc1 [Compound 163, N-(2-(((3s,5s,7s)-adamantan-1-yl)amino)ethyl)-5-(4-chloro-phenyl)-1-(2,4-dichloro-phenyl)-4-methyl-1H-pyrazole-3-carboxamide]",14.6,3.66,3.66,good inhibitory effects,good inhibitory effects,good inhibitory effects,–
"Cc1c(C(=O)NCCNC2C3CC4CC(C3)CC2C4)nn(-c2ccc(F)cc2F)c1-c1ccc(Cl)cc1 (stereo not drawn) [Compound 76, N-(2-(((1r,3r,5r,7r)-adamantan-2-yl)amino)ethyl)-5-(4-chloro-phenyl)-1-(2,4-difluorophenyl)-4-methyl-1H-pyrazole-3-carboxamide]",7.32,3.66,1.83,good inhibitory effects,good inhibitory effects,good inhibitory effects,–
"Cc1c(CNC(=O)NCCC23CC4CC(CC(C4)C2)C3)nn(-c2ccc(Cl)cc2Cl)c1-c1ccc(Cl)cc1 [Compound 12, 1-(2-((3r,5r,7r)-adamantan-1-yl)ethyl)-3-((5-(4-chloro-phenyl)-1-(2,4-dichlorophenyl)-4-methyl-1H-pyrazol-3-yl)-methyl)urea]",15.2,> 122,122,–,–,–,–
"Cc1c(C(=O)NCCNC23CC4CC(C)(CC(C)(C4)C2)C3)nn(-c2ccc(Cl)cc2Cl)c1-c1ccc(Cl)cc1 [Compound 23, (5-(4-chlorophenyl)-1-(2,4-dichlorophenyl)-N-(2-(((1r,3R,5S,7r)-3,5-dimethyl-adamantan-1-yl)amino)ethyl)-4-methyl-1H-pyrazole-3-carboxamide]",7.32,3.66,1.83,good inhibitory effects,good inhibitory effects,good inhibitory effects,–
"Cc1c(C(=O)O[C@H]2C[C@@H]3CC[C@@]2(C)C3(C)C)nn(-c2ccc(Cl)cc2Cl)c1-c1ccc(Cl)cc1 [Compound 172, (1S,2S,4S)-1,7,7-trimethyl-bicyclo[2.2.1]heptan-2-yl 5-(4-chlorophenyl)-1-(2,4-dichlorophenyl)-4-methyl-1H-pyrazole-3-carboxylate]",–,> 338,84.5,–,–,–,> 338
"Cc1c(C(=O)NCCCCNC2C3CC4CC(C3)CC2C4)nn(-c2ccc(Cl)cc2Cl)c1-c1ccc(Cl)cc1 (stereo not drawn) [Compound 19, N-(4-(((1r,3r,5r,7r)-adamantan-2-yl)amino)butyl)-5-(4-chlorophenyl)-1-(2,4-dichlorophenyl)-4-methyl-1H-pyrazole-3-carboxamide]",13.4,6.71,6.71,good inhibitory effects,good inhibitory effects,good inhibitory effects,–
